In article PMC10533412, “Phosphoantigens glue butyrophilin 3A1 and 2A1 to activate Vγ9Vδ2 T cells” (Nature, 2023):
Where “and” joins values, the source holds several entries; their conditions need not be identical. Identical values can stand only once.

Assays:
Vγ9Vδ2 T cells = conditions: cited from earlier work
[1] = molecular target: T1, BTN2A1 B30.2–BTN3A1 B30.2 (Homo sapiens, UniProt O00481+Q7KYR7, R449A/R469A); assay: ITC: BTN2A1 B30.2 (and mutants) binding to BTN3A1 B30.2 in the presence of pAg
T1 construct: The BTN3A1 B30.2 domain was expressed and purified as described previously; 6xHis; made in house; host or cells: Escherichia coli BL21 (DE3) for BTN2A1 B30.2
Protocol: ITC binding fits were calculated using MicroCal Analysis software.
For the experiments testing the binding of BTN2A1/BTN2A2 B30.2 domain (including their mutants) to the BTN3A1 B30.2 domain with or without HMBPP, BTN3A1 B30.2 (100 µM) and HMBPP (300 µM) were incubated in the buffer at a 1:3 ratio and loaded into the sample cell, and the injection syringe was filled with the buffer containing 1 mM BTN2A1/BTN2A2 B30.2 (including their mutants).

BTN2A1 B30.2 domain = BTN2A1 B30.2 domain (Homo sapiens, UniProt Q7KYR7); conditions: ITC
Protocol: ITC experiments were performed using the MicroCal PEAQ-ITC instrument (GE Healthcare) at 25 °C. We used an initial injection of 0.4 μl followed by 19 injections (2 µl each) at 150 s time intervals. ITC binding fits were calculated using MicroCal Analysis software. The samples were prepared using a buffer (20 mM HEPES pH 7.5, 150 mM NaCl).

[2] = tested on: BTN2A−/− MIA PaCa-2 (BTN2A1/BTN2A2 KO) cells; assay: Cell killing assay with BTN2A−/− MIA PaCa-2 (BTN2A1/BTN2A2 KO) cells expressing BTN2A1/BTN2A2 variants; conditions: for cell killing, Means, Fig. 6e: N 4; for cell killing, single replicate, Fig. 6e: listed as HMBPP
Protocol: MIA PaCa-2 cells were infected with lentivirus bearing luciferase transgene. Luciferase-positive cells were plated at 5.0 × 10^3 cells per well in 384-well plates 1 day before transfection. All plasmids were transfected into BTN2A^−/− MIA PaCa-2 (BTN2A1/BTN2A2 KO) cells using Lipofectamine 2000 reagent. […] Stable-lite luciferase (Vazyme) was added to each well and the luciferase signal was immediately measured by using the PerkinElmer EnVision microplate reader.
Percentage of lysis was calculated using the following equation: percentage of specific lysis = (maximum luciferase − experimental luciferase)/maximum luciferase × 100.

[3] = 0.1 μM, cells expressing 2A1 (full)
[4] = 0.1 μM, cells expressing 2A2 B30.2 W374R/M506T (with 2A1 other segments)
[5] = 0.1 μM, cells expressing 2A2 W374R/M506T (with 2A1 EC)
[6] = 0.1 μM, cells expressing 2A2 W374R/M506T (wtih 2A1 JM)
[7] = 0.1 μM, cells expressing 2A2 W374R/M506T
[8] = 1 μM, cells expressing 2A1 (full)
[9] = 1 μM, cells expressing 2A2 B30.2 W374R/M506T (with 2A1 other segments)
[10] = 1 μM, cells expressing 2A2 W374R/M506T (with 2A1 EC)
[11] = 1 μM, cells expressing 2A2 W374R/M506T (wtih 2A1 JM)
[12] = 1 μM, cells expressing 2A2 W374R/M506T
[13] = 10 μM, cells expressing 2A1 (full)
[14] = 10 μM, cells expressing 2A2 B30.2 W374R/M506T (with 2A1 other segments)
[15] = 10 μM, cells expressing 2A2 W374R/M506T (with 2A1 EC)
[16] = 10 μM, cells expressing 2A2 W374R/M506T (wtih 2A1 JM)
[17] = 10 μM, cells expressing 2A2 W374R/M506T
[18] = 2A1 WT, source data Ext. Fig. 3c
[19] = 2A1 ∆C, source data Ext. Fig. 3c
[20] = Ext. Fig. 6d, cells expressing 2A1 WT, three-parameter fit
[21] = Ext. Fig. 6d, cells expressing 2A2 G352Y354QR/M506T/W374R, three-parameter fit
[22] = Ext. Fig. 6d, cells expressing 2A2 G352Y354QR, three-parameter fit
[23] = Ext. Fig. 6d, cells expressing 2A2 M506T, three-parameter fit
[24] = Ext. Fig. 6d, cells expressing 2A2 W374R/M506T, three-parameter fit

Chain of BTN2A1 B30.2 domain (Q7KYR7 316-527 limits assumed): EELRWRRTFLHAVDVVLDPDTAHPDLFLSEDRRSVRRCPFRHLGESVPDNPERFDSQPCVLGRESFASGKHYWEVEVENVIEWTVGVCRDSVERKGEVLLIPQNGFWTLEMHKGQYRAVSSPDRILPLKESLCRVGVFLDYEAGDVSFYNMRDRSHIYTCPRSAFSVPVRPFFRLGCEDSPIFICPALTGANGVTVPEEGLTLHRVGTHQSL
T1 sequence (O00481 322-513): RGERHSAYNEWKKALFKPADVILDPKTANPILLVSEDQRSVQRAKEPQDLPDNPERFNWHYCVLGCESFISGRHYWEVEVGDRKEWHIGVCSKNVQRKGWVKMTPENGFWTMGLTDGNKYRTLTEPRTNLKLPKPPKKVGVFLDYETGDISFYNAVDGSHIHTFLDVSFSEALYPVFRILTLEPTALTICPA
T1 sequence (Q7KYR7 316-527 R449A/R469A): as the sequence (Q7KYR7 316-527 limits assumed) above, with R134A, R154A counted along it

## C/C(=C\COP(=O)(O)OP(=O)(O)O)CO [Compound 1, (E)-4-hydroxy-3-methylbut-2-en-1-yl diphosphate]
Vγ9Vδ2 T cells
  EC50 for Vγ9Vδ2 T cell activation: picomolar range
[1]
  Binding of 2A1 B30.2 R449A/R469A to 3A1 B30.2 in the presence of HMBPP: does not bind
BTN2A1 B30.2 domain
  HMBPP binding to BTN2A1 B30.2 domain: does not bind
[2]; 0.1 μM, NT cells
  cell killing, Means, Fig. 6e: 15.31
  cell killing, single replicate, Fig. 6e: 16.9534 and 12.1556 and 17.488 and 14.6256
[2]; [3]
  cell killing, Means, Fig. 6e: 43.2
  cell killing, single replicate, Fig. 6e: 41.0547 and 41.9242 and 44.3091 and 45.5217
[2]; [4]
  cell killing, Means, Fig. 6e: 37.63
  cell killing, single replicate, Fig. 6e: 30.7526 and 48.9339 and 41.228 and 29.5964
[2]; [5]
  cell killing, Means, Fig. 6e: 10.65
  cell killing, single replicate, Fig. 6e: 10.0494 and 11.5088 and 9.171 and 11.8833
[2]; [6]
  cell killing, Means, Fig. 6e: 21.79
  cell killing, single replicate, Fig. 6e: 18.9096 and 21.2355 and 31.0049 and 16.0148
[2]; [7]
  cell killing, Means, Fig. 6e: 6.989
  cell killing, single replicate, Fig. 6e: 8.189 and 6.668 and 2.002 and 11.0964
[2]; 1 μM, NT cells
  cell killing, Means, Fig. 6e: 19.83
  cell killing, single replicate, Fig. 6e: 17.72 and 22.5709 and 17.5879 and 21.4385
[2]; [8]
  cell killing, Means, Fig. 6e: 47.49
  cell killing, single replicate, Fig. 6e: 44.8999 and 44.0198 and 51.2118 and 49.8148
[2]; [9]
  cell killing, Means, Fig. 6e: 47.88
  cell killing, single replicate, Fig. 6e: 42.711 and 50.2729 and 52.3554 and 46.1815
[2]; [10]
  cell killing, Means, Fig. 6e: 18.17
  cell killing, single replicate, Fig. 6e: 13.1292 and 15.284 and 20.3978 and 23.864
[2]; [11]
  cell killing, Means, Fig. 6e: 29.03
  cell killing, single replicate, Fig. 6e: 27.7855 and 29.0017 and 26.4668 and 32.8608
[2]; [12]
  cell killing, Means, Fig. 6e: 15.67
  cell killing, single replicate, Fig. 6e: 11.4295 and 17.9078 and 14.2342 and 19.1099
[2]; 10 μM, NT cells
  cell killing, Means, Fig. 6e: 24.11
  cell killing, single replicate, Fig. 6e: 29.5378 and 18.9356 and 23.5884 and 24.3846
[2]; [13]
  cell killing, Means, Fig. 6e: 46.91
  cell killing, single replicate, Fig. 6e: 43.2704 and 47.0695 and 47.7293 and 49.5621
[2]; [14]
  cell killing, Means, Fig. 6e: 46.58
  cell killing, single replicate, Fig. 6e: 39.3517 and 47.3098 and 45.3387 and 54.323
[2]; [15]
  cell killing, Means, Fig. 6e: 29.48
  cell killing, single replicate, Fig. 6e: 34.2513 and 25.8478 and 33.2665 and 24.5352
[2]; [16]
  cell killing, Means, Fig. 6e: 29.83
  cell killing, single replicate, Fig. 6e: 29.1476 and 34.1243 and 24.0842 and 31.9573
[2]; [17]
  cell killing, Means, Fig. 6e: 28.16
  cell killing, single replicate, Fig. 6e: 27.8321 and 21.0649 and 28.437 and 35.311
[2]; [18]
  Bottom, best-fit value, log(agonist) vs. response (three parameters): 30.67
  LogEC50, best-fit value: -7.891
  Span (best-fit value): 32.29
  Top, best-fit value, log(agonist) vs. response (three parameters): 62.96
[2]; [19]
  Bottom, best-fit value, log(agonist) vs. response (three parameters): 18.53
  LogEC50, best-fit value: -4.358
  Span (best-fit value): 32.38
  Top, best-fit value, log(agonist) vs. response (three parameters): 50.91
[2]; [20]
  Bottom (best-fit value): 37.79
  Span (best-fit value): 24.09
  Top (best-fit value): 61.87
[2]; [21]
  Bottom (best-fit value): 32.14
  Span (best-fit value): 22.27
  Top (best-fit value): 54.4
[2]; [22]
  Bottom (best-fit value): 19.82
  Span (best-fit value): 7.278
  Top (best-fit value): 27.1
[2]; [23]
  Bottom (best-fit value): 17.84
  Span (best-fit value): 32.36
  Top (best-fit value): 50.2
[2]; [24]
  Bottom (best-fit value): 21.03
  Span (best-fit value): 27.17
